Test results reported in PMC5590075, “Synthesis, Antimicrobial, and Antioxidant Activities of Chalcogen-Containing Nitrone Derivatives from (R)-citronellal” (Medicines, 2017).
Values joined by “and” are separate entries in the source; they are usually repeats but may differ in a detail not shown here. Equal values may be shown once.

Legend:
[1] = test system: Listeria monocytogenes ATCC 7644; assay: agar disk diffusion test; format: cell-based; settings: L. monocytogenes, 1.0 × 10^8 CFU.mL^−1; 20 μL compound diluted in DMSO (1:1) per 6 mm disc; streptomycin 10 µg; mean of two repetitions
From the text: (§1) To evaluate the antimicrobial potential of the synthesized compounds, the following reference strains of bacteria, that are economically important in foods, were employed: Gram-positive Listeria monocytogenes ATCC 7644, Staphylococcus aureus ATCC 25923, and Bacillus cereus ATCC 11778; Gram-negative Salmonella Typhimurium ATCC 14028, Escherichia coli O157: H7 NCTC 12900 and the clinically important Pseudomonas aeruginosa ATCC 15442.
(§2) The antimicrobial activity assay using the disk diffusion test was realized using the methodology that is recommended by the Clinical Laboratory Standards Institute (CLSI). The determination of the minimum inhibitory concentration (MIC) and minimum bactericidal concentration (MBC) was performed using the macro dilution tube method, in accordance with Rota et al., with modifications. Details of these assays are provided in the Supplemental Material. […]
(§3) 2.1. Antimicrobial activity assay using the disk diffusion test
(§4) The disk diffusion test followed the methodology recommended by the Clinical Laboratory Standards Institute CLSI [4]. The inoculum was standardized by standard McFarland to the concentration of 10^8 CFU.mL−1 and spread on the surface of a Petri dish containing Mueller‐Hinton (MH) agar. Then, the paper disc (6 mm) was put on a plate impregnated with 20 μL of the testing compound previously diluted in DMSO (1:1) and incubated at 37 °C for 24 hours. Zone of inhibition ≥20 mm were considered as strong inhibition, <20–12 mm as moderate inhibition, and <12 mm no inhibition. A positive control with streptomycin antibiotic (10 μg) and a negative one, with paper discs impregnated with distilled water, were used […]
(§5) 2.4. Radical Scavenging Activity […]
(§6) The ABTS radical scavenging activity was determined according to the method described by Erel. Different concentrations of compounds 5a–d and 10 (10–500 μ M) were mixed with the ABTS+ solution, and the decrease in the absorbance at 734 nm was recorded.

[2] = test system: Escherichia coli O157: H7 NCTC 12900; assay: agar disk diffusion test; format: cell-based; settings: E. coli O157:H7, 1.0 × 10^8 CFU.mL^−1; 20 μL compound diluted in DMSO (1:1) per 6 mm disc; streptomycin 10 µg; mean of two repetitions
From the text: as §1, §2, §3, §4, §5, §6

[3] = test system: Salmonella Typhimurium ATCC 14028; assay: agar disk diffusion test; format: cell-based; settings: S. Typhimurium, 1.0 × 10^8 CFU.mL^−1; 20 μL compound diluted in DMSO (1:1) per 6 mm disc; streptomycin 10 µg; mean of two repetitions
From the text: as §1, §2, §3, §4, §5, §6

[4] = test system: Pseudomonas aeruginosa ATCC 15442; assay: agar disk diffusion test; format: cell-based; settings: P. aeruginosa, 1.0 × 10^8 CFU.mL^−1; 20 μL compound diluted in DMSO (1:1) per 6 mm disc; streptomycin 10 µg; mean of two repetitions
From the text: as §1, §2, §3, §4, §5, §6

[5] = test system: Bacillus cereus ATCC 11778; assay: agar disk diffusion test; format: cell-based; settings: B. cereus, 1.0 × 10^8 CFU.mL^−1; 20 μL compound diluted in DMSO (1:1) per 6 mm disc; streptomycin 10 µg; mean of two repetitions
From the text: as §1, §2, §3, §4, §5, §6

[6] = test system: Staphylococcus aureus ATCC 25923; assay: agar disk diffusion test; format: cell-based; settings: S. aureus, 1.0 × 10^8 CFU.mL^−1; 20 μL compound diluted in DMSO (1:1) per 6 mm disc; streptomycin 10 µg; mean of two repetitions
From the text: as §1, §2, §3, §4, §5, §6

ABTS radical scavenging = settings: mean ± SD (n = 3); for IC50: read-out: ABTS radical scavenging IC50 (concentration compound required for 50% scavenging)
Description: The antioxidant properties of the synthesized compounds (5a–d and 10) were evaluated by three different methods in vitro: DPPH (1,1-diphenyl-2-picryl-hydrazyl) and ABTS^+ (2,2′-azino-bis(3-ethylbenzthiazoline-6-sulfonic acid) radical scavenging ability and ferric ion reducing antioxidant power (FRAP). All drugs were dissolved in dimethyl sulfoxide (DMSO) at concentrations of 1–500 µM. These assays were performed according to the literature and details of these experiments are described elsewhere (see the ‘Results and Discussion’ section for the references). […]
2.3. Antioxidant activity assays
The antioxidant properties of the synthesized compounds were evaluated by three different methods in vitro: DPPH and ABTS+ radical scavenging activity and ferric ion reducing antioxidant power (FRAP). All drugs were dissolved in dimethyl sulfoxide (DMSO). The experimental results were given as the means ± standard deviation (SD) to show the variations among the groups. The statistical analysis was performed using one‐way analysis of variance (ANOVA) followed by Newman‐Keuls multiple comparison test when appropriate. The differences were considered statistically significant at a probability of less than 5% (p < 0.05). All tests were performed at least three times in duplicate. The IC50 values (the concentration of sample required to scavenge 50% of the free radicals) were calculated from the graph of the scavenging effect percentage versus the […]
2.4. Radical Scavenging Activity
To determine if compounds 5a–d and 10 present in vitro antioxidant activity against free radicals, DPPH and ABTS+ scavenging capability were evaluated at different concentrations. […]
The ABTS radical scavenging activity was determined according to the method described by Erel. Different concentrations of compounds 5a–d and 10 (10–500 μ M) were mixed with the ABTS+ solution, and the decrease in the absorbance at 734 nm was recorded. […]
values, as calculated by the following equation:
I% = [(Ac−As/Ac) × 100] (1)
3. Ferric ion reducing antioxidant power (FRAP) […]
reducing capacity of compounds 5a–d and 10.
[8] with slight modifications.
They were homogenized in a 0.1 M
The supernatants were used for determination of the δ‐ALAD activity. […]
and 500 μL of distilled water. […]
and the absorbance was read at 555 nm.

Compound | Inhibition Zone [1] | Inhibition Zone [2] [mm] | Inhibition Zone [3] [mm] | Inhibition Zone [4] [mm] | Inhibition Zone [5] [mm] | Inhibition Zone [6] [mm] | ABTS radical scavenging, percentage of inhibition in relation to control (ABTS radical scavenging; 50 μM) [%] | ABTS radical scavenging, percentage of inhibition in relation to control (ABTS radical scavenging; 100 μM) [%] | ABTS radical scavenging, percentage of inhibition in relation to control (ABTS radical scavenging; 500 μM) [%] | IC50 (ABTS radical scavenging) [µM] | ABTS radical scavenging, percentage of inhibition in relation to control (ABTS radical scavenging; 5 μM) [%] | ABTS radical scavenging, percentage of inhibition in relation to control (ABTS radical scavenging; 10 μM) [%]
CC(C)=CCCC(C)C/C=[N+](\C)[O-] (stereo not drawn) [5d, (E)-N,3,7-trimethyloct-6-en-1-imine oxide] | 31.0 mm and 31 mm | 22.5 | 23 | 23 | 29 | 24.5 | 0.30 ± 0.33 | 3.10 ± 0.48 | 17.05 ± 0.47 | – | – | –
CC(C)=CCCC(C)(C/C=[N+](\C)[O-])Sc1ccccc1 (stereo not drawn) [5c, (E)-N,3,7-trimethyl-3-(phenylthio)oct-6-en-1-imine oxide] | 26.0 mm and 26 mm | 21.5 | – | 24 | 24.5 | 24 | 4.18 ± 1.23 | 11.60 ± 1.50 | 59.51 ± 4.16 | 419 ± 35.8 | – | –
CC(C)=CCCC(C)C(/C=[N+](\C)[O-])Sc1ccccc1 (stereo not drawn) [5a, (E)-N,3,7-Trimethyl-2-(phenylthio)oct-6-en-1-imine oxide] | 18 mm | 11 | 8.5 | 8.5 | 21.5 | 15 | 11.74 ± 0.47 | 22.84 ± 1.02 | 77.61 ± 0.81 | 297 ± 1 | – | –
CC(C)=CCC[C@@H](C)C(/C=N/O)[Se]c1ccccc1 (stereo partly drawn) [compound 10, (3R,E)-3,7-dimethyl-2-(phenylselanyl)oct-6-enal oxime] | 21 mm | 9 | 10.5 | 9 | 19 | 22 | 87.59 ± 4.81 | 94.03 ± 1.05 | – | 25 ± 2 | 2.39 ± 0.57 | 27.81 ± 2.12
